The values below come from publication PMC9486541, “Design, synthesis and cytotoxic evaluation of novel betulonic acid-diazine derivatives as potential antitumor agents” (Frontiers in Chemistry, 2022).

Data set [1] deals with Bel-7402. The data set is described as follows: MTT assay, Bel-7402 cells. Type of data set: cell-based, human. Particulars: Homo sapiens, Bel-7402, 72 h incubation, read-out: Half maximal inhibitory concentration (IC50) values, Bel-7402. An excerpt:
(§1) The human hepatocellular carcinoma cell line (HepG2), human hepatocellular carcinoma cell line (Bel-7402), human cervical cancer cell line (Hela), human breast adenocarcinoma cell line (MCF-7) and Madin-Darby canine kidney cell line (MDCK) were obtained from the Chinese Academy of Medical Sciences and Peking Union Medical College. Cultures were maintained as monolayer in RPMI-1640/DMEM supplemented with 10% (v/v) fetal bovine serum (FBS) and 1% (v/v) penicillin/streptomycin (Thermo Technologies, New York, NY, United States) under a humidified atmosphere containing 5% CO2 at 37°C. The BoA derivatives and positive control drugs (BoA and DDP) under study were dissolved in DMSO (Sigma, St. Louis, MO, United States) and added at required concentrations to the cell culture. Cells incubated without the preparations served as the control.
(§2) The antitumor activity was assessed by MTT assay, as previously reported ([Fang et al., 2018]). Each tested compound and positive control drugs were dissolved in DMSO and diluted with the medium to the test concentrations, and the final concentration of DMSO in the culture medium was controlled at less than 0.5% (v/v). Briefly, cells were cultured at 37°C and dispersed in replicates in 96-well plates with HepG2, Bel-7402, HeLa, MCF-7 and MDCK for 24 h. Fresh medium along with compounds (BoAA-BoAE, BoA2A-BoA2G, BoA3A-BoA3G, BoA4A-BoA4G) at different concentrations was then added to individual wells and incubated for 72 h, with BoA and DDP as the positive control. Experiments on FXR expression were separated into three groups: Control (PBS), BoA2C (8 μM), and BoA2C (8 μM) + DY268 (10 μM) ([Giordano et al., 2016]), with three repeating wells in each. In separate wells, BoA2C and DY268 were introduced and cultured for 72 h. After 72 h, the cell was incubated with MTT solution (0.5 mg/ml) for an additional 4 h at 37°C. The produced formazan crystals were solubilized with DMSO, and the optical density of solution was measured at 570 nm using a plate reader (BIORAD 550 spectrophotometer, Bio-rad Life Science Development Ltd., Beijing, China). Wells without drugs were used to be blanks. The IC50 values were defined as the concentration of compounds that produced a 50% proliferation inhibition of surviving cells and calculated using the Graph Pad Prism 5. The inhibitory rate was calculated in the following Equation 1, where OD is the optical density: % inhibition=[1−(OD Sample group−OD Blank group)/(OD Control group−OD Blank group)]×100% (1)
For orientation: Formazan colour is commonly taken as a measure of viable cells.

In data set [2] the test system is HepG2. The data set is described as follows: MTT assay, HepG2 cells. Particulars: Homo sapiens, HepG2, 72 h incubation, read-out: Half maximal inhibitory concentration (IC50) values, HepG2. The data set is classed as cell-based, human.
Excerpt: as §1, §2

In data set [3] the test system is Hela. The data set is described as follows: MTT assay, Hela cells. The data set is classed as cell-based, human. Particulars: Homo sapiens, HeLa, 72 h incubation, read-out: Half maximal inhibitory concentration (IC50) values, Hela.
Excerpt: as §1, §2

In data set [4] the test system is MDCK. Kind of data set: MTT assay, MDCK normal cell line. Type of data set: cell-based, canine. Particulars: Canis lupus familiaris, MDCK, 72 h incubation, normal cell line, read-out: Half maximal inhibitory concentration (IC50) values, MDCK.
Excerpt: as §1, §2

For data set [5], the system named is MCF-7. Kind of data set: MTT assay, MCF-7 cells. The data set is classed as cell-based, human. As to conditions: Homo sapiens, MCF7, 72 h incubation, read-out: Half maximal inhibitory concentration (IC50) values, MCF-7.
Excerpt: as §1, §2

The test system of data set [6] is LNCaP cells. The arrangement: method as in list in b5. As to conditions: Figure 1, representative BoA derivatives; ref list in b5; cited from earlier work.
The test system of data set [7] is G-361 cells. The arrangement: method as in list in b5. As to conditions: Figure 1, representative BoA derivatives; ref list in b5; cited from earlier work.
Data set [8] relates to A375 cells. The arrangement: method as in list in b5. Particulars: Figure 1, representative BoA derivatives; ref list in b5; cited from earlier work.
The subject of data set [9] is Hela cells. Also on record: method as in list in b5. Particulars: Figure 1, representative BoA derivatives; ref list in b5; cited from earlier work.
In data set [10] the test system is MCF-7 breast cancer cells. Kind of data set: MTT cell proliferation with FXR antagonist DY268. Type of data set: cell-based, human. Particulars: MCF-7, BoA2C (8 μM) + DY268 (10 μM), 24, 48 and 72 h. Here is the method: as §2, with “In separate wells, BoA2C and DY268 were introduced and cultured for 72 h.” left out, “The inhibitory rate was calculated in the following Equation 1, where OD is the optical density: % inhibition=[1−(OD Sample group−OD Blank group)/(OD Control group−OD Blank group)]×100% (1)” left out

For data set [11], the system named is LNCaP prostate cancer cells. Also on record: method as in Saxena et al., 2006. As to conditions: 100 μM; ref Saxena et al., 2006; cited from earlier work.
The test system of data set [12] is normally proliferating fibroblast cells. Also on record: method as in Saxena et al., 2006. As to conditions: ref Saxena et al., 2006; cited from earlier work.

Broadly, the melting point is the temperature, or range, at which the solid turns liquid. In turn, `C=C(C)[C@@H]1CC[C@]2(C(=O)OCCCOC(=O)c3nc(C)c(C)nc3C)CC[C@]3(C)[C@H](CC[C@@H]4[C@@]5(C)CCC(=O)C(C)(C)[C@@H]5CC[C@]43C)[C@@H]12` [BoA3E, (3,5,6-Trimethylpyrazin-2-acyloxy)-propyl-3-oxolup-20(29)-en-28-oate] showed a melting point of 57 to 59 °C. Moreover, in [1], the IC50 came to 11.2 ± 1.55 µM. For the same compound, in [2], the IC50 came out at 20.2 ± 0.53 µM. The IC50 in data set [3] was 10.1 ± 0.15 µM. In [4], the IC50 was greater than 30 µM. The IC50 in data set [5] came out at 29.5 ± 0.89 µM.
Compound `C=C(C)[C@@H]1CC[C@]2(C(=O)OCCCOC(=O)c3ccncn3)CC[C@]3(C)[C@H](CC[C@@H]4[C@@]5(C)CCC(=O)C(C)(C)[C@@H]5CC[C@]43C)[C@@H]12` [BoA3F] registered a melting point of 50 to 52 °C. Besides, the IC50 in data set [1] was 22.3 ± 5.85 µM. Besides, the IC50 in data set [2] is greater than 30 µM. Further, the IC50 in [3] turned out to be 21.1 ± 6.66 µM. Besides, the IC50 in data set [4] is 17.9 ± 0.82 µM. The IC50 in data set [5] is greater than 30 µM.
Compound `C=C(C)[C@@H]1CC[C@]2(C(=O)OCCCOC(=O)c3ccnnc3)CC[C@]3(C)[C@H](CC[C@@H]4[C@@]5(C)CCC(=O)C(C)(C)[C@@H]5CC[C@]43C)[C@@H]12` [BoA3G] returned a melting point of 68 to 71 °C. In addition, the IC50 in data set [1] was found to be 25.2 ± 2.44 µM. In addition, the IC50 in [2] was greater than 30 µM. Further, the IC50 in [3] was 4 ± 0.32 µM. For the same compound, in data set [4], the IC50 turned out to be 18.5 ± 0.42 µM. For the same compound, the IC50 in data set [5] was found to be 13.4 ± 0.51 µM.
For the compound `C=C(C)[C@@H]1CC[C@]2(C(=O)OCCCCOC(=O)c3cnccn3)CC[C@]3(C)[C@H](CC[C@@H]4[C@@]5(C)CCC(=O)C(C)(C)[C@@H]5CC[C@]43C)[C@@H]12` [BoA4A, (Pyrazin-2-acyloxy)-butyl-3-oxolup-20(29)-en-28-oate], the melting point lay within 69 to 71 °C. Further, the IC50 in data set [1] was determined as 9.39 ± 0.73 µM. The IC50 in data set [2] stood at 12.9 ± 4 µM. Further, in data set [3], the IC50 was 13.82 ± 0.12 µM. The IC50 in [4] came out at 25.3 ± 4.14 µM. The IC50 in data set [5] was found to be 9.13 ± 0.4 µM.
Regarding `C=C(C)[C@@H]1CC[C@]2(C(=O)OCCCCOC(=O)c3nccnc3C)CC[C@]3(C)[C@H](CC[C@@H]4[C@@]5(C)CCC(=O)C(C)(C)[C@@H]5CC[C@]43C)[C@@H]12` [BoA4B, (3-Methylpyrazin-2-acyloxy)-butyl-3-oxolup-20(29)-en-28-oate], the melting point was 54 to 55 °C. Moreover, the IC50 in [1] worked out at 3.92 ± 1.1 µM. Besides, the IC50 in [2] is 21.8 ± 2.46 µM. Further, in data set [3], the IC50 was found to be 11.5 ± 0.93 µM. Further, the IC50 in [4] was greater than 30 µM. Also, the IC50 in data set [5] is greater than 30 µM.
`C=C(C)[C@@H]1CC[C@]2(C(=O)OCCCCOC(=O)c3nc(C)c(C)nc3C)CC[C@]3(C)[C@H](CC[C@@H]4[C@@]5(C)CCC(=O)C(C)(C)[C@@H]5CC[C@]43C)[C@@H]12` [BoA4E, (3,5,6-Trimethylpyrazin-2-acyloxy)-butyl-3-oxolup-20(29)-en-28-oate] had a melting point of 124 to 126 °C. Besides, the IC50 in [1] was greater than 30 µM. In [2], the IC50 was greater than 30 µM. For the same compound, the IC50 in data set [3] is greater than 30 µM. In addition, the IC50 in data set [4] is greater than 30 µM. The IC50 in data set [5] is greater than 30 µM.
In the case of `C=C(C)[C@@H]1CC[C@]2(C(=O)OCc3nccnc3C)CC[C@]3(C)[C@H](CC[C@@H]4[C@@]5(C)CCC(=O)C(C)(C)[C@@H]5CC[C@]43C)[C@@H]12` [BoAB, (3-Methylpyrazin-2-yl)-methyl-3-oxolup-20(29)-en-28-oate], the melting point lay in the range of 80 to 82 °C. In data set [1], the IC50 worked out at 7.73 ± 1.92 µM. Besides, the IC50 in data set [2] came out at 11.1 ± 0.27 µM. Besides, the IC50 in data set [3] is 11.8 ± 0.58 µM. Moreover, the IC50 in [4] is greater than 30 µM. Also, the IC50 in [5] was 10 ± 0.26 µM.
For the compound `C=C(C)[C@@H]1CC[C@]2(C(=O)OCc3cnc(C)cn3)CC[C@]3(C)[C@H](CC[C@@H]4[C@@]5(C)CCC(=O)C(C)(C)[C@@H]5CC[C@]43C)[C@@H]12` [BoAC, (5-Methylpyrazin-2-yl)-methyl-3-oxolup-20(29)-en-28-oate], the melting point is 125 to 127 °C. Further, the IC50 in data set [1] was 8.24 ± 2.43 µM. Also, the IC50 in [2] is 8.95 ± 4.76 µM. For the same compound, the IC50 in data set [3] is 11.9 ± 1.05 µM. For the same compound, the IC50 in [4] is greater than 30 µM. In addition, in data set [5], the IC50 is 8.94 ± 1.3 µM.
`C=C(C)[C@@H]1CC[C@]2(C(=O)OCc3cncc(C)n3)CC[C@]3(C)[C@H](CC[C@@H]4[C@@]5(C)CCC(=O)C(C)(C)[C@@H]5CC[C@]43C)[C@@H]12` [BoAD, (6-Methylpyrazin-2-yl)-methyl-3-oxolup-20(29)-en-28-oate] gave a melting point of 119 to 121 °C. The IC50 in data set [1] was determined as 7.51 ± 1.4 µM. In addition, in data set [2], the IC50 amounted to 5.17 ± 1.33 µM. Also, in data set [3], the IC50 was 10.7 ± 0.32 µM. In data set [4], the IC50 was greater than 30 µM. The IC50 in [5] came to 8.24 ± 0.87 µM.
In the case of `C=C(C)C1CC[C@]2(C(=O)NCCCCC(NC(=O)OC(C)(C)C)C(=O)O)CC[C@]3(C)[C@H](CC[C@@H]4[C@@]5(C)CCC(=O)C(C)(C)[C@@H]5CC[C@]43C)[C@@H]12` (stereo partly shown) [Compound 1], the IC50 in data set [6] was 10 µM.
As to `C=C(C)C1CCC2(C(=O)OC3OC(COC(C)=O)C(OC(C)=O)C(OC(C)=O)C3OC(C)=O)CCC3(C)C(CCC4C5(C)CCC(O)C(C)(C)C5CCC43C)C12` (stereo not shown) [Compound 2], the IC50 in [7] was 3.4 µM.
For `C=C(C)[C@@H]1CC[C@]2(C(=O)Nc3cncc4ccccc34)CC[C@]3(C)C(CCC4[C@@]5(C)CC[C@H](OC(C)=O)C(C)(C)C5CC[C@]43C)C12` (stereo partly shown) [Compound 3], in data set [8], the IC50 is 1.48 µM.
`C=C(C)[C@@H]1CC[C@]2(C(=O)OCCN3CCNCC3)CC[C@]3(C)C(CCC4[C@@]5(C)CC[C@H](O)C(C)(C)C5CC[C@]43C)C12` (stereo partly shown) [Compound 4]: in [9], the IC50 is 2.05 µM.
Turning to `COc1cccc(Cn2cc(C(=O)Nc3ccc(C)c(S(=O)(=O)N4CCOCC4)c3)c(-c3ccc(C)cc3)n2)c1` [DY268], the “effect of DY268 on BoA2C antiproliferative activity” value in data set [10] is on record as “reversed BoA2C inhibitory impact on the growth of MCF-7 breast cancer cells”.
Turning to `C=C(C)C1CC[C@]2(C(=O)NCCCCC(NC(=O)OC(C)(C)C)C(=O)O)CC[C@]3(C)[C@H](CC[C@@H]4[C@@]5(C)CCC(=O)C(C)(C)[C@@H]5CC[C@]43C)[C@@H]12` (stereo partly shown) [boc-lysinated-betulonic acid], the “inhibition of LNCaP prostate cancer cells” value in data set [11] is 95.7%. In addition, in data set [12], the “effect on normally proliferating fibroblast cells” value is “little effect on normally proliferating fibroblast cells”.
